According to patent US12492373B2, “Production method for nerve tissue” (Racthera Co., Ltd., priority 2014, dated 2025):

Test system: human iPS cells (1231A3 strain)
Experiment: Form of cell aggregate in suspension culturing, bright field observation (good / medium / bad form)
Assay type: cell-based
Settings: for cell aggregates with a bad form (not spherical, collapsed) / cell aggregates with a good form (spherical, smooth surface and dense inside) / cell aggregates with a medium form (spherical, forming cyst): day 6
Method: (§1) The above human iPS cells were treated with the cell dispersion solution by using TrypLE Select (Life Technologies), further dispersed into single cells by pipetting operation, and the above human iPS cells dispersed into single cells were suspended in 100 μl of a serum-free medium at 1.2×10^4 cells per well of a non-cell-adhesive 96-well culture plate (PrimeSurface 96V-bottom plate, manufactured by SUMITOMO BAKELITE), and subjected to suspension culturing at 37° C., 5% CO2. As the serum-free medium (gfCDM+KSR) therefor, a serum-free medium which is a 1:1 mixture of F-12 medium and IMDM medium supplemented with 10% KSR, 450 μM 1-monothioglycerol, and 1× Chemically defined lipid concentrate was used. At the time of the start of suspension culturing (day 0 after the start of suspension culturing, start of step 2), Y27632 (final concentration 20 μM) was added to the above serum-free medium. By day 2 after the start of suspension culturing, a cell aggregate was formed under both preconditioning conditions and conditions without preconditioning (step 2 completed, step 3 start). On day 3 after the start of suspension culturing, a serum-free medium (50 μl) free of Y27632 was added.
The thus-prepared cells on day 6 after the start of suspension culturing were subjected to bright field observation under an inverted microscope (KEYENCE) (FIG. 3).
Furthermore, bright field observation of the form of the cell aggregate on day 6 after the start of suspension culturing was performed under an inverted microscope, and the form was categorized into good form (FIG. 3C black bar, spherical, smooth surface and dense inside), medium form (FIG. 3 gray bar, spherical, forming cyst), and bad form (FIG. 3C white bar, not spherical, collapsed) and quantified.
as §1, with “μM 1-monothioglycerol, 1× Chemically” for “μM 1-monothioglycerol, and 1× Chemically”, “20 μM) and TGFβR inhibitor (SB431542, 5 μM) were added to” for “20 μM) was added to”, “of Y27632 and supplemented with a TGFβR inhibitor (SB431542, 5 μM) was added.” for “of Y27632 was added.”
The form of the thus-prepared cell aggregates on day 6 after the start of suspension culturing was observed according to the method described in Example 3.
The above human iPS cells were treated with the cell dispersion solution by using TrypLE Select (Life Technologies), further dispersed into single cells by pipetting operation, and the above human iPS cells dispersed into single cells were suspended in 100 μl of a serum-free medium at 1.2×10^4 cells per well of a non-cell-adhesive 96-well culture plate (PrimeSurface 96V-bottom plate, manufactured by SUMITOMO BAKELITE), and subjected to suspension culturing at 37° C., 5% CO2. As the serum-free medium (gfCDM+KSR) therefor, a serum-free medium which is a 1:1 mixture of F-12 medium and IMDM medium supplemented with 10% KSR, 450 μM 1-monothioglycerol and 1× Chemically defined lipid concentrate was used. […]

[1] = SB431542 5 μM in step 1 and in step 2 and step 3
[2] = no preconditioning in step 1, SB431542 5 μM added in step 2 and step 3

SMILES: NC(=O)c1ccc(-c2nc(-c3ccc4c(c3)OCO4)c(-c3ccccn3)[nH]2)cc1 [SB431542, 4-(5-benzol[1,3]dioxol-5-yl-4-pyridin-2-yl-1H-imidazol-2-yl)-benzamide]
- shape of cell aggregate compared with no preconditioning (SB431542 5 μM 1 day in step 1, day 6 of suspension culturing): better shape
- cell aggregates with a bad form (not spherical, collapsed) [1]: about 0%
- cell aggregates with a good form (spherical, smooth surface and dense inside) [1]: about 100%
- cell aggregates with a medium form (spherical, forming cyst) [1]: about 0%
- cell aggregates with a bad form (not spherical, collapsed) (SB431542 5 μM in step 1 only): about 0%
- cell aggregates with a good form (spherical, smooth surface and dense inside) (SB431542 5 μM in step 1 only): about 100%
- cell aggregates with a medium form (spherical, forming cyst) (SB431542 5 μM in step 1 only): about 0%
- cell aggregates with a bad form (not spherical, collapsed) [2]: about 30%
- cell aggregates with a good form (spherical, smooth surface and dense inside) [2]: about 10%
- cell aggregates with a medium form (spherical, forming cyst) [2]: about 60%
